Source: PMC10366102, “Dose escalation and expansion cohorts in patients with advanced breast cancer in a Phase I study of the CDK7-inhibitor samuraciclib” (Nature Communications, 2023)
Like-named read-outs stand apart in the source and are kept apart here.

Tested on: patients with advanced/metastatic solid tumors
Conditions: for TEAE: Upper respiratory tract infection / TEAE: Urinary tract infection: Module 1A
Excerpt: In this Phase I study (ClinicalTrials.gov: NCT03363893), male and female patients with locally advanced/metastatic solid tumors received samuraciclib in dose escalation cohorts (at least 3 and up to 6 evaluable patients permitted per dose cohort) to determine the MTD (see Supplementary Information for definition). An additional 6 to 12 male or female patients with breast cancer were enrolled to a paired biopsy cohort to evaluate the pharmacodynamic effects of samuraciclib in tumor tissue, initiated after determining the minimally biologically active dose, defined by a 25-30% reduction in signal for pPolII in lymphocytes after 21 days of dosing or more.
For inclusion in the paired biopsy cohort, only patients with breast cancer with lesions amenable to biopsy were recruited. A full list of inclusion/exclusion criteria is provided in the Supplementary Information.
Patients initially received an oral dose of samuraciclib at Cycle 0, Day 1 for PK evaluation, followed by a 48-hour interval then continuous daily dosing for 21 days (Cycle 1). Dosing continued in 21-day cycles until the patient no longer gained clinical benefit or had intolerable toxicity. At least 3 evaluable patients in a cohort had to complete Cycle 1 before any dose escalation was considered.
As Module 1A was a ‘first time in human’ safety study, initial efficacy was evaluated as a secondary endpoint using the DCR, defined as the percentage of patients with a complete response (CR), PR or stabilization of disease at first on treatment RECIST assessment. To allow for the evaluation of longer-term benefit, Module 1B-1 and Module 2A used the CBR as a secondary endpoint, defined as the percentage of patients with CR or PR or stabilization of disease for at least 24 weeks between enrollment and disease progression or death due to any cause. In addition, the ORR was assessed, defined as the percentage of patients who had at least 1 objective response (CR or PR) prior to any evidence of progression. […] Statistical analyses of PFS using the Kaplan-Meier method were performed on the ITT population - defined as all enrolled patients. AEs were summarized from the Safety Population - defined as all patients who received at least 1 dose of samuraciclib - using the MedDRA system organ class (SOC), preferred term (PT), and graded according to CTCAE V5.0 (Supplementary Information). […]
In the Module 1A dose escalation cohort, patients initially received 1 oral dose of samuraciclib at Cycle 0, Day 1. In the absence of a dose-limiting toxicity (DLT) and following a washout period of at least 48 hours, patients could then enter Cycle 1 and receive samuraciclib daily. In the continued absence of a DLT, each patient could continue to receive samuraciclib daily for a minimum of 21 days (Cycle 1) and could continue to receive additional 21-day cycles of treatment until they were no longer gaining […]
treatment visit was conducted (within 3 days after the last samuraciclib dose). An end of study visit was conducted 28 to 35 days after the last dose of samuraciclib.
At least 3 and up to 6 evaluable patients were required for each dose cohort. At least 3 evaluable patients in a cohort had to complete at least one 21-day cycle of dosing before a Safety Review Committee (SRC), composed of study site investigators and Sponsor medical personnel, could review and initiate the next cohort and dose escalation. Within the initial cohorts there was a staggered interval, with subsequent patients not being dosed until the first patient within each cohort had completed 7 days of samuraciclib monotherapy.
Patient enrolment in the dose escalation cohort proceeded according to a Bayesian model rolling 6 […]
2. If 1 patient experienced a DLT in a group of 3 or more evaluable patients, then the cohort was expanded to include 6 evaluable patients. […]
dose escalation occurred.
3. If at least 2 patients experienced a DLT in a cohort of up to 6 patients, irrespective of the number of […]

CC(C)c1cnn2c(NCc3ccccc3)cc(NC[C@H]3CCNC[C@@H]3O)nc12 [samuraciclib, Samuraciclib]
TEAE: Upper respiratory tract infection (120 mg OD N=6): 5 (83.3) participants (%)
TEAE: Urinary tract infection (120 mg OD N=6): 0 participants (%)
TEAE: Upper respiratory tract infection (240 mg OD N=12): 1 (8.3) participants (%)
TEAE: Urinary tract infection (240 mg OD N=12): 1 (8.3) participants (%)
TEAE: Upper respiratory tract infection (360 mg OD N=12): 1 (8.3) participants (%)
TEAE: Urinary tract infection (360 mg OD N=12): 1 (8.3) participants (%)
TEAE: Upper respiratory tract infection (480 mg OD N=6): 0 participants (%)
TEAE: Urinary tract infection (480 mg OD N=6): 1 (16.7) participants (%)
Lowest dose tested in humans that has demonstrated biological activity (OD): 120 mg
MBAD originally declared by the SRC (OD): 240 mg
Non-tolerated dose (OD in a fasted state): 480 mg
ALT increased; All AEs (both, human, in vivo): 8 (18.2) patients (%)
ALT increased; Grade ≥3 (both, human, in vivo): 1 (2.3) patients (%)
AST increased; All AEs (both, human, in vivo): 7 (15.9) patients (%)
AST increased; Grade ≥3 (both, human, in vivo): 0 patients (%)
Abdominal pain upper; All AEs (both, human, in vivo): 4 (9.1) patients (%)
Abdominal pain upper; Grade ≥3 (both, human, in vivo): 0 patients (%)
Abdominal pain; All AEs (both, human, in vivo): 12 (27.3) patients (%)
Abdominal pain; Grade ≥3 (both, human, in vivo): 0 patients (%)
Anemia; All AEs (both, human, in vivo): 10 (22.7) patients (%)
Anemia; Grade ≥3 (both, human, in vivo): 2 (4.5) patients (%)
Any treatment-emergent AE; All AEs (both, human, in vivo): 44 (100.0) patients (%)
Any treatment-emergent AE; Grade ≥3 (both, human, in vivo): 21 (47.7) patients (%)
Back pain; All AEs (both, human, in vivo): 6 (13.6) patients (%)
Back pain; Grade ≥3 (both, human, in vivo): 0 patients (%)
Constipation; All AEs (both, human, in vivo): 7 (15.9) patients (%)
Constipation; Grade ≥3 (both, human, in vivo): 0 patients (%)
Cough; All AEs (both, human, in vivo): 8 (18.2) patients (%)
Cough; Grade ≥3 (both, human, in vivo): 0 patients (%)
Decreased appetite; All AEs (both, human, in vivo): 9 (20.5) patients (%)
Decreased appetite; Grade ≥3 (both, human, in vivo): 1 (2.3) patients (%)
Diarrhea; All AEs (both, human, in vivo): 38 (86.4) patients (%)
Diarrhea; Grade ≥3 (both, human, in vivo): 2 (4.5) patients (%)
Dizziness; All AEs (both, human, in vivo): 2 (4.5) patients (%)
Dizziness; Grade ≥3 (both, human, in vivo): 0 patients (%)
Drug-related: ALT increased (both, human, in vivo): 3 (6.8) participants (%)
Drug-related: AST increased (both, human, in vivo): 4 (9.1) participants (%)
Drug-related: Abdominal pain (both, human, in vivo): 8 (18.2) participants (%)
Drug-related: Abdominal pain upper (both, human, in vivo): 2 (4.5) participants (%)
Drug-related: Anaemia (both, human, in vivo): 3 (6.8) participants (%)
Drug-related: Blood creatinine increased (both, human, in vivo): 3 (6.8) participants (%)
Drug-related: Decreased appetite (both, human, in vivo): 8 (18.2) participants (%)
Drug-related: Dehydration (both, human, in vivo): 2 (4.5) participants (%)
Drug-related: Diarrhoea (both, human, in vivo): 36 (81.8) participants (%)
Drug-related: Dry mouth (both, human, in vivo): 2 (4.5) participants (%)
Drug-related: Dyspepsia (both, human, in vivo): 2 (4.5) participants (%)
Drug-related: Dysphagia (both, human, in vivo): 2 (4.5) participants (%)
Drug-related: Fatigue (both, human, in vivo): 14 (31.8) participants (%)
Drug-related: Gastroesophageal reflux disease (both, human, in vivo): 3 (6.8) participants (%)
Drug-related: Mucosal inflammation (both, human, in vivo): 2 (4.5) participants (%)
Drug-related: Nausea (both, human, in vivo): 34 (77.3) participants (%)
Drug-related: Thrombocytopenia (both, human, in vivo): 3 (6.8) participants (%)
Drug-related: Vomiting (both, human, in vivo): 35 (79.5) participants (%)
Drug-related: Weight decreased (both, human, in vivo): 4 (9.1) participants (%)
Dysgeusia; All AEs (both, human, in vivo): 1 (2.3) patients (%)
Dysgeusia; Grade ≥3 (both, human, in vivo): 0 patients (%)
Dysphagia; All AEs (both, human, in vivo): 2 (4.5) patients (%)
Dysphagia; Grade ≥3 (both, human, in vivo): 0 patients (%)
Dyspnea; All AEs (both, human, in vivo): 6 (13.6) patients (%)
Dyspnea; Grade ≥3 (both, human, in vivo): 2 (4.5) patients (%)
Fatigue; All AEs (both, human, in vivo): 17 (38.6) patients (%)
Fatigue; Grade ≥3 (both, human, in vivo): 0 patients (%)
Grade ≥3: GGT increased (both, human, in vivo): 2 (4.5) participants (%)
Grade ≥3: Malignant neoplasm progression (both, human, in vivo): 2 (4.5) participants (%)
Grade ≥3: Pulmonary embolism (both, human, in vivo): 2 (4.5) participants (%)
Grade ≥3: Thrombocytopenia (both, human, in vivo): 2 (4.5) participants (%)
Headache; All AEs (both, human, in vivo): 4 (9.1) patients (%)
Headache; Grade ≥3 (both, human, in vivo): 0 patients (%)
Hyperglycemia; All AEs (both, human, in vivo): 1 (2.3) patients (%)
Hyperglycemia; Grade ≥3 (both, human, in vivo): 0 patients (%)
Hypocalcaemia; All AEs (both, human, in vivo): 2 (4.5) patients (%)
Hypocalcaemia; Grade ≥3 (both, human, in vivo): 0 patients (%)
Hypokalaemia; All AEs (both, human, in vivo): 0 patients (%)
Hypokalaemia; Grade ≥3 (both, human, in vivo): 0 patients (%)
Nausea; All AEs (both, human, in vivo): 34 (77.3) patients (%)
Nausea; Grade ≥3 (both, human, in vivo): 0 patients (%)
Participants with any drug-related TEAE (both, human, in vivo): 44 (100.0) participants (%)
Rash; All AEs (both, human, in vivo): 1 (2.3) patients (%)
Rash; Grade ≥3 (both, human, in vivo): 0 patients (%)
Stomatitis; All AEs (both, human, in vivo): 1 (2.3) patients (%)
Stomatitis; Grade ≥3 (both, human, in vivo): 0 patients (%)
Taste disorder; All AEs (both, human, in vivo): 0 patients (%)
Taste disorder; Grade ≥3 (both, human, in vivo): 0 patients (%)
Thrombocytopenia reported as Grade ≥3 (both, human, in vivo): 2 patients
Upper respiratory tract infection; All AEs (both, human, in vivo): 8 (18.2) patients (%)
Upper respiratory tract infection; Grade ≥3 (both, human, in vivo): 0 patients (%)
Urinary tract infection; All AEs (both, human, in vivo): 5 (11.4) patients (%)
Urinary tract infection; Grade ≥3 (both, human, in vivo): 0 patients (%)
Vomiting; All AEs (both, human, in vivo): 36 (81.8) patients (%)
Vomiting; Grade ≥3 (both, human, in vivo): 1 (2.3) patients (%)
Weight decreased; All AEs (both, human, in vivo): 4 (9.1) patients (%)
Weight decreased; Grade ≥3 (both, human, in vivo): 1 (2.3) patients (%)
DLT: Decreased appetite (both, human, in vivo, 21 days): 1 (3.0) patients (%)
DLT: Diarrhoea (both, human, in vivo, 21 days): 1 (3.0) patients (%)
DLT: Gastroesophageal reflux disease (both, human, in vivo, 21 days): 1 (3.0) patients (%)
DLT: Nausea (both, human, in vivo, 21 days): 1 (3.0) patients (%)
DLT: Oesophagitis (both, human, in vivo, 21 days): 1 (3.0) patients (%)
DLT: Stomatitis (both, human, in vivo, 21 days): 1 (3.0) patients (%)
DLT: Thrombocytopenia (both, human, in vivo, 21 days): 1 (3.0) patients (%)
DLT: Vomiting (both, human, in vivo, 21 days): 2 (6.1) patients (%)
DLT: Weight decreased (both, human, in vivo, 21 days): 1 (3.0) patients (%)
Patients with a dose-limiting toxicity (both, human, in vivo, 21 days): 3/6
Patients with any DLT (both, human, in vivo, 21 days): 6 (18.2) patients (%)
Drug-related: Oral pain (both, human, in vivo, po): 2 (4.5) participants (%)
Drop in platelet counts (during therapy, over the first 15 days then plateau, 240 mg OD and 360 mg OD): ~20%
Maximum tolerated dose (MTD) (once daily, monotherapy): 360 mg
